Results: patent publication US20160249841A1, “[…] ELECTROENCEPHALOGRAPHIC OSCILLATIONS” (Galenea Corp., priority 2012, published 2016)

Legend:
[1] = system: wild-type mice; assay: EEG time-frequency maps of mean power during onset of exploratory activity, wild-type mice treated with PCP; type: in vivo, mouse; details: wild-type mice treated with PCP versus untreated, FIG. 10
Description: Time-frequency maps were produced of mean power for untreated wild-type mice and mice treated with PCP. A signature in EEG oscillations observed in untreated mice was absent following treatment with PCP. This signature was characterized by peaks in early beta (20-30 Hz) activity, gammaLow (30-40 Hz) and gammaHi (80-100) Hz activity.

[2] = system: Coloboma mice; details: low doses; cited from earlier work
[3] = system: CNhetKO mice; assay: Novel object recognition task performance, CNhetKO mice; type: in vivo, mouse
Method: EEGs were recorded from control and calcineurin heterozygous knock-out (CNhetKO) subjects during performance of a novel-object recognition task. Control and CNhetKO mice were exposed to two identical objects during a 10 min sample phase. After a 24 hour delay period, subjects were exposed to a familiar object and a novel object. During each phase, the behavior of each subject was monitored in real time and synchronized to recorded EEG oscillations (Topscan, CleverSys Inc.). As depicted in FIG. 4, an exploratory activity occurred when a subject's nose was orientated towards an object and was within a 2 cm radius surrounding the object for at least 200 msec, while the subject's center of mass (‘*’) was outside of 2 cm radius. […]
The effects of D4 agonist PD168077 on the EEG oscillations observed during onset of the exploratory activity in CNhetKO mice were evaluated. CNhetKO subjects were treated with PD 168077 (5 mg/kg) subcutaneously and EEG oscillations associated with exploratory activity in a novel object recognition task were analyzed. Exploratory activity in the presence of novel objects and familiar objects was analyzed for up to 90 min post-injection. Time-frequency maps of baseline conditions (no D4 agonist) and treatment conditions were evaluated.

[4] = system: CNhetKO mice; assay: EEG oscillations in PFC during onset of exploratory activity in novel object recognition task, CNhetKO mice; type: in vivo, mouse; details: 5 mg/kg subcutaneously
Description: Alterations in electroencephalographic oscillations (e.g., shifts in power) recorded from the prefrontal cortex (PFC) of mice could result from engagement of executive functions necessary for attending to and actively exploring a new environment; processes unrelated to executive function may also be involved. An integrated system was set up that combined automated real-time behavioral analysis (Topscan, CleverSys, Inc., Reston, Va.) together with multichannel electrophysiology equipment (MC_Rack, MultiChannel Systems, GmbH, Reutlingen, Germany) to analyze PFC activity during different phases of a novel object recognition (NOR) task in mice that were well habituated to the test apparatus.
EEGs were recorded from control and calcineurin heterozygous knock-out (CNhetKO) subjects during performance of a novel-object recognition task. […] During each phase, the behavior of each subject was monitored in real time and synchronized to recorded EEG oscillations (Topscan, CleverSys Inc.). […]
The area under the curve was computed from spectrograms to quantify power in different frequency bands [Theta (4-12 Hz) and GammaHI (65-90 Hz)] of the EEG oscillations. […]
The effects of D4 agonist PD168077 on the EEG oscillations observed during onset of the exploratory activity in CNhetKO mice were evaluated. […] Time-frequency maps of baseline conditions (no D4 agonist) and treatment conditions were evaluated.

Structure (SMILES): c1ccc(C2(N3CCCCC3)CCCCC2)cc1 [PCP, Phencyclidine]
- Signature in EEG oscillations (peaks in early beta 20-30 Hz, gammaLow 30-40 Hz, gammaHi 80-100 Hz) [1]: absent

Structure (SMILES): C[C@H](N)Cc1ccccc1 [D-amphetamine]
- Hyperkinesis [2]: ameliorated

Structure (SMILES): Cc1cccc(C(=O)NCN2CCN(c3ccccc3C#N)CC2)c1 [PD 168077]
- Time spent exploring novel objects versus familiar objects ([3]; CNhetKO mice, versus cyclodextrin control, FIG. 8B): significantly more time exploring novel objects compared with familiar objects
- Performance in the novel object recognition cognitive paradigm ([3]; CNhetKO subjects, 5 mg/kg s.c. 30 min prior to familiarization phase and again 30 min prior to test phase after 24 hr): essentially completely restored performance
- Signature of EEG oscillation observed during onset of the exploratory activity (time-frequency maps) ([4]; CNhetKO mice, up to 90 min post-injection, versus baseline (no D4 agonist)): restored the signature of EEG oscillation
- Gamma responses (GammaHi 65-90 Hz EEG power) in PFC elicited by object exploration ([4]; CNhetKO subjects, analyzed up to 90 min post-injection, FIG. 6): transiently restored normal Gamma responses
